Structures are written as SMILES. Where a name gives a salt, the structure may show the parent alone. Read-outs that look alike come from different tables or passages of the source.

For assay [1], the system named is C57BL/6 male mice with DHT pellet. Briefly: DHT-induced alopecia mouse model of male pattern baldness. As to conditions: C57BL/6 male mice with subcutaneous DHT pellet (2.5 mg 21 day), dosed topically once, visually graded for hair regrowth. The format is in vivo. Here is the method:
(§1) A mouse model of male pattern baldness is used to investigate the effectiveness of the present compounds for growing hair. Agonists for the sonic hedgehog pathway that act by binding and activating Smoothened were tested in a formulation of 50:30:20 PG:EtOH:water or 5:95 DMSO:acetone vehicle. C57BL/6 male mice (48-52 days old on arrival) from Charles River Labs were used on the study. The mice were housed and cared for according to established procedures. Food and water were ad libitum. On Day 0, the mice were shaved on their lower back, an area of ˜1.5 inches×˜2 inches with Wahl clippers using a surgical blade. On day −3, the mice were anesthetized with isoflurane, their back was rinsed with a pad of 70% ethanol, a placebo pellet or a DHT pellet (2.5 mg 21 day pellet) were implanted subcutaneously between the shoulder blades with a 10 gauge trochar. DHT pellet transplantation results in maintenance of existing hair follicles in the resting (telogen) phase. The hole was stapled with a sterile autoclip and the mice were returned to their cage after awaking. The mice were dosed topically once and visually graded daily, except weekends, for melanogenesis and hair regrowth of fur in the dosed area (Table 4).
In the absence of treatment with the present compounds, the follicles remain in telogen rather than following the normal time course of the mouse hair cycle.

In the next assay the test system is C57BL/6 male mice. Briefly: C57BL/6 hair growth after single topical dose. The format is in vivo, mouse. As to conditions: shaved lower back, dosed topically once, visually graded for melanogenesis and hair regrowth. As for the experimental part: as §1
For assay [2], the system named is sonic hedgehog pathway, Daoy human medulloblastoma cells. Briefly: Human hedgehog reporter assay Daoy-GliLuc (DGL). The format is cell-based. From the text:
(§2) Mouse (TM3: mouse Leydig cells; S12: mouse embryonic mesenchymal cells) and human (Daoy: human medulloblastoma cell; HepM: human embryonic palatal mesenchymal cell) cell lines are used to screen small molecules for their ability to modulate the activity of the sonic hedgehog pathway (Table 1, Table 2, and Table 3). Stable hedgehog pathway reporter cell lines are established by specific antibiotic selection following transfection of a reporter plasmid containing a luciferase gene located directly downstream from the gli promoter. Consequently, any observable changes in cellular luciferase activity may be attributed to changes in sonic hedgehog pathway activity in mouse and human cells, respectively, since gli is the major by-product of this pathway. To calculate activity, we generate an eleven point dose curve for each compound using 1:3 dilutions in 96 well assay plates. Each plate tested also contains low and high control to establish maximal pathway activation so to establish/compare a percentage activation of each tested compound (AMAX) on respective plates. Also we calculate EC50 values, or a concentration where the pathway will be exactly 50% activated, for each tested compound to determine potency. In these cell lines, compounds that register >20% AMAX values are considered active.
(§3) Stable hedgehog pathway reporter cell lines are established following specific antibiotic selection following transfection of a reporter plasmid In short, typically cells are plated in MicroTiter-plates at 10,000-20,000 cells per well, in growth media (containing 10%-20% FBS). After 48-72 hrs (HGL and DGL respectively) the media in the assay plates is switched to low-serum containing media (0.5% FBS). At that time compounds are added (at 1-5 μM) to the assay plates, in the presence or absence of hedgehog protein (octyl-modified version; 1-5 ng/ml). After another 24 hrs of incubation, the media from the assay plates is discarded and replaced with luciferase assay-mix. Subsequently, plates are incubated at RT for ˜15-30 mins and then read in a luminometer. [note: addition of the Hedgehog protein, although not critical, will sensitize the assay allowing the identification of weak actives].
On the technique in general: A reporter such as luciferase makes a cellular process visible.

Assay [3] concerns sonic hedgehog pathway, S12 mouse embryonic mesenchymal cells. As to the kind of experiment: Hedgehog pathway Gli-luciferase reporter assay in S12 cells. The assay is classed as cell-based.
Description: as §2, §3

Assay [4] relates to sonic hedgehog pathway, TM3 mouse Leydig cells. Briefly: Hedgehog pathway Gli-luciferase reporter assay in TM3 cells. As to conditions: Table 1. The format is cell-based.
Description: as §2, §3

Assay [5] deals with sonic hedgehog pathway, HepM human embryonic palatal mesenchymal cells. Briefly: Human hedgehog reporter assay HEPM-GliLuc (HGL). The assay is classed as cell-based. The following applies: HepM human embryonic palatal mesenchymal cells, gli-luciferase reporter, Table 1.
Description: as §2, §3

Setting [6] is: Daoy human cells, Gli-Luc, Table 2, read-out: Human Daoy (Gli-Luc) Avg. EC50.
Where [7] appears, read: S12 mouse cells, Table 2, read-out: Mouse S12 Avg. EC50.
The mark [8] stands for this setting: Daoy human medulloblastoma cells, gli-luciferase reporter, Table 1, read-out: Daoy Avg. EC50.
[9] abbreviates: S12 mouse embryonic mesenchymal cells, Table 1, read-out: S12 Avg. EC50.

With `CN[C@H]1CC[C@H](N(Cc2cc(-c3ccccc3)ccc2OC)C(=O)c2sc3ccccc3c2Cl)CC1`, the “Androgenetic Alopecia” value in assay [1] is “yes”. Further, the “C57BL/6 Hair Growth” value in the assay on C57BL/6 male mice is reported as “yes”.
For the molecule `CN[C@H]1CC[C@H](N(Cc2cc(-c3ccc(N)nc3)ccc2OC)C(=O)c2sc3cccc(F)c3c2Cl)CC1`, the “Androgenetic Alopecia” value in assay [1] is reported as “yes”. Further, the “C57BL/6 Hair Growth” value in the assay with C57BL/6 male mice is “yes”.
For the molecule `CN[C@H]1CC[C@H](N(Cc2cc(-c3ccc(NS(C)(=O)=O)nc3)ccc2OC)C(=O)c2sc3c(F)ccc(F)c3c2Cl)CC1`, in the assay on C57BL/6 male mice, the “C57BL/6 Hair Growth” value is on record as “yes”.
As a reminder, the EC50 is the midpoint of the concentration-response curve. `CN[C@H]1CC[C@@H](N(Cc2cc(-c3ccc(SC)cc3)ccc2OC)C(=O)c2sc3c(F)ccc(F)c3c2Cl)CC1` [Compound 373, 3-Chloro-4,7-difluoro-benzo[b]thiophene-2-carboxylic acid (4-methoxy-4′-methylsulfanyl-biphenyl-3-ylmethyl)-(4-methylamino-cyclohexyl)-amide hydrochloride]: the EC50 in assay [2] (setting [6]) and in assay [3] (setting [7]) was < 50 nM in each case.
As for `CN[C@H]1CC[C@@H](N(Cc2cc(-c3cccc(SC)c3)ccc2OC)C(=O)c2sc3c(F)ccc(F)c3c2Cl)CC1` [Compound 372, 3-Chloro-4,7-difluoro-benzo[b]thiophene-2-carboxylic acid (4-methoxy-3′-methylsulfanyl-biphenyl-3-ylmethyl)-(4-methylamino-cyclohexyl)-amide hydrochloride], the EC50 in assay [2] (setting [6]) and in assay [3] (setting [7]) was < 50 nM each time.
For `COc1ccc(-c2cc[n+](C)cc2)cc1CN(C(=O)c1sc2c(F)ccc(F)c2c1Cl)[C@H]1CC[C@@H](N)CC1` [Compound 418], the EC50 is < 50 nM in assay [2] (Daoy human cells, gli-luciferase reporter, Table 3, read-out: Daoy Avg. EC50) and 1000 to 2500 nM in assay [3] (S12 mouse embryonic mesenchymal cells, Table 3, read-out: S12 Avg. EC50).
For the molecule `CN[C@H]1CC[C@H](N(Cc2cc(-c3ccc(S(C)(=O)=O)cc3)ccc2OC)C(=O)c2sc3ccccc3c2Cl)CC1`, in assay [1], the “Androgenetic Alopecia” value was “yes”. Besides, the “C57BL/6 Hair Growth” value in the assay on C57BL/6 male mice is listed as “yes”.
For the molecule `CN[C@H]1CC[C@@H](N(Cc2cc(-c3cccnc3)ccc2OC)C(=O)c2sc3cccc(F)c3c2Cl)CC1` [360 (R16), 3-Chloro-4-fluoro-benzo[b]thiophene-2-carboxylic acid (2-methoxy-5-pyridin-3-yl-benzyl)-(4-methylamino-cyclohexyl)-amide dihydrochloride], the half-maximal effective concentration (EC50) in assay [2] (setting [8]), in assay [4], in assay [3] (setting [9]) and in assay [5] was < 50 nM in each case.
On to `CN[C@H]1CC[C@H](N(Cc2cc(-c3ccnc(C(=O)OC)c3)ccc2OC)C(=O)c2sc3c(F)ccc(F)c3c2Cl)CC1`, for which the “Androgenetic Alopecia” value in assay [1] was “yes”. The “C57BL/6 Hair Growth” value in the assay on C57BL/6 male mice is recorded as “yes”.
In the case of `CN[C@H]1CC[C@H](N(Cc2cc(-c3ccnc(C)c3)ccc2OC)C(=O)c2sc3ccccc3c2Cl)CC1`, the “Androgenetic Alopecia” value in assay [1] was “yes”. Also, the “C57BL/6 Hair Growth” value with C57BL/6 male mice is given as “yes”.
On to `CN[C@H]1CC[C@@H](N(Cc2cc(-c3ccc([S+](C)[O-])cc3)ccc2OC)C(=O)c2sc3c(F)ccc(F)c3c2Cl)CC1` (stereo partly drawn) [Compound 377, 3-Chloro-4,7-difluoro-benzo[b]thiophene-2-carboxylic acid (4′-methanesulfinyl-4-methoxy-biphenyl-3-ylmethyl)-(4-methylamino-cyclohexyl)-amide trifluoroacetate], for which the concentration for a half-maximal effect (EC50) in assay [2] (setting [6]) and in assay [3] (setting [7]) was < 50 nM throughout.
In the case of `CCOc1ccc(-c2ccc(C#N)cc2)cc1CN(C(=O)c1sc2ccccc2c1Cl)[C@H]1CC[C@H](NC)CC1`, the “C57BL/6 Hair Growth” value with C57BL/6 male mice is “yes”.
Turning to `CN[C@H]1CC[C@H](N(Cc2cc(-c3cc(C)nc(C)c3)ccc2OC)C(=O)c2sc3ccccc3c2Cl)CC1`, the “Androgenetic Alopecia” value in assay [1] was “yes”. In the assay on C57BL/6 male mice, the “C57BL/6 Hair Growth” value is reported as “yes”.
Take `CN[C@H]1CC[C@H](N(Cc2cc(-c3ccc(C(N)=O)cc3)ccc2OC)C(=O)c2sc3c(F)ccc(F)c3c2Cl)CC1`: in assay [1], the “Androgenetic Alopecia” value was “yes”. Also, in the assay with C57BL/6 male mice, the “C57BL/6 Hair Growth” value was “yes”.
Take `CN[C@H]1CC[C@@H](N(Cc2cc(-c3cc[n+]([O-])cc3)ccc2OC)C(=O)c2sc3c(F)ccc(F)c3c2Cl)CC1` [Compound 374, 4-(3-((3-chloro-4,7-difluoro-N-((1s,4s)-4-(methylamino)cyclohexyl)benzo[b]thiophene-2-carboxamido)methyl)-4-methoxyphenyl)pyridine 1-oxide]: the EC50 in assay [2] (setting [6]) and in assay [3] (setting [7]) was < 50 nM in each case.
In the case of `CN[C@H]1CC[C@H](N(Cc2cc(-c3ccnc(C(=O)N(C)C)c3)ccc2OC)C(=O)c2sc3c(F)ccc(F)c3c2Cl)CC1`, the “Androgenetic Alopecia” value in assay [1] is listed as “yes”. Further, the “C57BL/6 Hair Growth” value in the assay with C57BL/6 male mice is reported as “yes”.
In the case of `CN[C@H]1CC[C@@H](N(Cc2cc(-c3ccc(C(C)=O)cc3)ccc2OC)C(=O)c2sc3ccccc3c2Cl)CC1` [Compound 303, 3-Chloro-benzo[b]thiophene-2-carboxylic acid (4′-acetyl-4-methoxy-biphenyl-3-ylmethyl)-(4-methylamino-cyclohexyl)-amide hydrochloride], the EC50 in assay [2] (setting [8]), in assay [4], in assay [3] (setting [9]) and in assay [5] was < 50 nM in each case.
In the case of `CN[C@H]1CC[C@@H](N(Cc2cc(-c3cccc([S+](C)[O-])c3)ccc2OC)C(=O)c2sc3c(F)ccc(F)c3c2Cl)CC1` (stereo partly drawn) [Compound 376, 3-Chloro-4,7-difluoro-benzo[b]thiophene-2-carboxylic acid (3′-methanesulfinyl-4-methoxy-biphenyl-3-ylmethyl)-(4-methylamino-cyclohexyl)-amide trifluoroacetate], the EC50 in assay [2] (setting [6]) and in assay [3] (setting [7]) was < 50 nM throughout.
As to `CN[C@H]1CC[C@H](N(Cc2cc(-c3ccnc(C(=O)O)c3)ccc2OC)C(=O)c2sc3c(F)ccc(F)c3c2Cl)CC1`, in the assay on C57BL/6 male mice, the “C57BL/6 Hair Growth” value is reported as “no”.
The same measure, in the same setting: with `CCOc1ccc(-c2ccc(C)nc2)cc1CN(C(=O)c1sc2ccccc2c1Cl)[C@H]1CC[C@H](NC)CC1` the entry was “yes”.
Regarding `CNC1CCC(N(Cc2cc(-c3ccncc3)ccc2OC)C(=O)c2sc3ccccc3c2Cl)CC1` (stereo not drawn), the “Androgenetic Alopecia” value in assay [1] is given as “yes”. For the same molecule, in the assay with C57BL/6 male mice, the “C57BL/6 Hair Growth” value is “yes”.

The values above are taken from patent US20080194637A1, “Small organic molecule regulators of cell proliferation” (Curis, Inc., priority 2006, published 2008).
